Consider five molecules from US20030225007A1, “Sulfonamide derivatives of 3-substituted imidazol[1,2-d]-1,2,4-thiadiazoles and 3-substituted-[1,2,4] thiadiazolo[4,5-a] benzimidazole as inhibitors of fibrin cross-linking and transglutaminases” (Apotex Inc., priority 2002, published 2003).

One experiment deals with T1, Guinea pig liver TGase (Cavia cutleri, UniProt P08587).
T1 construct: Guinea pig liver TGase; from tissue; host or cells: guinea pig liver
T1 sequence (P08587 2-690): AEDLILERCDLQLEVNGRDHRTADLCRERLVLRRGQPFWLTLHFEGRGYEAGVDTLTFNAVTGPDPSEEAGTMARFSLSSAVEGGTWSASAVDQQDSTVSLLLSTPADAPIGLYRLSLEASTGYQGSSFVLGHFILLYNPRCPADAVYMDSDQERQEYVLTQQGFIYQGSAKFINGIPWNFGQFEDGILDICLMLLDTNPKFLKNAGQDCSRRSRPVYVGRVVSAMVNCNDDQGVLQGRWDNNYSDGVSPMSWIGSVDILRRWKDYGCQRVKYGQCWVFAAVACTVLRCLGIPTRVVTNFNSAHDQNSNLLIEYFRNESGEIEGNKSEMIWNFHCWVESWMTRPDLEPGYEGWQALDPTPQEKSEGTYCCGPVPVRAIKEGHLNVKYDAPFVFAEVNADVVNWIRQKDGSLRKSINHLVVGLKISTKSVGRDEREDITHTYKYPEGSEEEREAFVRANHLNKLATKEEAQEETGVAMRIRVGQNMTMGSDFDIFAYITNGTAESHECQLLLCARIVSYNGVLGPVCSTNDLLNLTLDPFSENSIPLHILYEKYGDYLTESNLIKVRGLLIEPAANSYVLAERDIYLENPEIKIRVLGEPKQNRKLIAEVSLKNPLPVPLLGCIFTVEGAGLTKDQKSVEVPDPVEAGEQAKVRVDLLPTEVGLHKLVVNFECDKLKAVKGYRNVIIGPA
The experiment can be described thus: Enzyme selectivity: inactivation of tissue type transglutaminase. The conditions noted are these: TGAse IC50, Guinea pig liver TGase; 5-min incubation at 37° C. in the absence of substrate. It counts as biochemical. The method, then:
Enzyme selectivity . Inactivation of tissue type transglutaminase: Inhibitor solution in DMSO (5 μL) was added to 250 mM Tris-Cl pH 7.5 containing 40 mM CaCl2 and 1 mM EDTA in a final volume of 42 μL. Guinea pig liver TGase (3 μL, 2.5 mg/mL in 5 mM Tris-HCl pH 7.5, 2 mM EDTA) was added and the mixture was incubated for 5 min. at 37° C.
An assay mixture composed of 50 mM Tris-Cl, pH 8.0, 10 mM CaCl2, 1 mM EDTA, 0.1% poly(ethylene glycol) (app. MW=1000) and 20 μM monodansylcadaverine was prepared in a spectrofluorimetric cell in a final volume of 2952 μL. Dimethylcasein (8 μL, 1% in 50 mM sodium phosphate pH 7.5) was added and the mixture was incubated at 37° C. for a few minutes. To assay the residual enzyme activity, 40 μL of the solution containing the enzyme and the inhibitor was transferred to the assay mixture. The covalent incorporation of monodansylcadaverine into casein was monitored by an increase in fluorescence at λexc=360 nm and λem=500 nm, as previously described ((Curtis, C. G.; Lorand, L. Methods Enzymol. 1976, 45, 177-191). To determine uninhibited enzyme activity, DMSO was used in place of inhibitor solution in the above assay. IC50 values were determined by plotting the percent of remaining enzyme activity against logarithm of inhibitor concentration. IC50 is defined here as inhibitor concentration resulting in 50% enzyme inactivation after 5-min incubation of the enzyme with the inhibitor in the absence of the substrate. Second order rate constants for inactivation were determined using method described by Kitz and Wilson (Kitz, R.; Wilson, I. J.Biol.Chem. 1962,237, 3245).

In experiment [1] the test system is platelet-depleted and platelet-rich human plasma clots. Nature of the experiment: Acceleration of fibrinolysis of platelet-depleted and platelet-rich plasma clots (t-PA lysis). It counts as biochemical. The conditions noted are these: platelet-depleted and platelet-rich human plasma clots made with varying inhibitor concentrations; lysis with 300 IU/mL t-PA; FIG. 3. The method, then: Platelet rich (platelet count: 150,000-300,000 mm^−3) or platelet-depleted citrated human plasma was prepared from at least three donors. Plasma (0.3 mL), containing 2-4 μg/mL of ^125I-labeled fibrinogen (specific activity approx. 200 μCi/mg, at least 85% clotability, Amersham Pharmacia Biotech UK Ltd.), was clotted by the addition of CaCl2 (6.4 μL) to a final concentration of 50 mM and thrombin (6.2 μL) to a final concentration of 5 units/mL. Solutions of Factor XIIIa inactivators in DMSO were added just prior to the addition of thrombin and CaCl2. In some cases the inactivator was dissolved and added to plasma in water. To these samples, DMSO (3.2 μL) was mixed in to make 1% final concentration. Conversely, water (3.2 μL) was added to clots to which inactivator was added in DMSO. […] The progress of the fibrinolysis was followed by quantitating the amount of radioactivity in a 20 μL aliquot of the lysis buffer at various lysis times. To measure the total amount of radioactivity in the clots taken for lysis, 0.6 mg bovine trypsin was added to each sample at the end of the lysis and the solutions were incubated for 4 hours at 37° C., or until the digestion was complete. An aliquot (20 μL) of the resulting solution was counted in the liquid scintillation counter. Per cent of fibrinolysis was then calculated with a correction for sub-sampling. […]

As for `O=S(=O)(NCCCCCCNc1nsc2nccn12)c1cccc2ccccc12` [1-naphthyl, N-[6-(imidazo[1,2-d][1,2,4]thiadiazol-3-ylamino)hexyl]naphthalene-1-sulfonamide], on Guinea pig liver TGase, the IC50 (in general, the point on the concentration scale where inhibition reaches its midpoint) worked out at 23 µM.
On the same count and under the same terms, then `O=S(=O)(Cc1ccccc1)NCCCCCCNc1nsc2nccn12` [2 / CH2Ph, N-[6-(imidazo[1,2-d][1,2,4]thiadiazol-3-ylamino)hexyl]-1-phenylmethanesulfonamide], with 27 µM; and `O=S(=O)(NCCCCCCNc1nsc2nccn12)c1ccc(F)cc1F` [2,4-diF-Ph, 2,4-difluoro-N-[6-(imidazo[1,2-d][1,2,4]thiadiazol-3-ylamino)hexyl]benzenesulfonamide], with 23 µM.
Same read-out and setting: to `O=S(=O)(NCCCCCCNc1nsc2nccn12)c1ccc(OC(F)(F)F)cc1` [4-OCF3-Ph, N-[6-(imidazo[1,2-d][1,2,4]thiadiazol-3-ylamino)hexyl]-4-trifluoromethoxybenzenesulfonamide] belongs 31 µM.
Take `O=C(O)CN(CCCCCCNS(=O)(=O)c1ccccc1[N+](=O)[O-])c1nsc2nccn12` [H / CH2CO2H / 2-NO2-Ph, N-imidazo[1,2-d][1,2,4]thiadiazol-3-yl-N-(6-{[(2-nitrophenyl)sulfonyl]amino}hexyl)glycine]: the “fibrinolysis of plasma clots” value in experiment [1] is “acceleration of fibrinolysis”. Besides, the half-inhibitory concentration (IC50) on Guinea pig liver TGase came to 17 µM.
